Molecules are shown by their SMILES.

Data set [1] relates to K562 CML cell line. Briefly: 13C6 glucose tracing in K562 CML cell line. Conditions: K562, several concentrations. It is filed as cell-based, human. The procedure: For conjugation of palmitate, a 20 mM stock was made in 100% EtOH. This was incubated on a shaking heater, 60° C. until the solution clarified. The palmitate was then added to 10% BSA (ultra-fatty acid free in EBSS, Roche, 03117057001) to give a palmitate:BSA ratio of 1:3 BSA. This solution was left for 15 min in water bath (37° C.), and then added to final concentration in complete medium. For cell line experiments, the medium was RPMI with 10% dialysed FBS and 1% penicillin/streptomycin. For tracing experiments 11 mM ^13C6 glucose was added to glucose-free RPMI.
Biological and technical replicates were processed through Autoplotter (56) and natural abundance was corrected for. Fraction of enrichment was calculated as m+2 and above. For CML samples treated with or without imatinib, multiple paired T-tests were conducted on Log 10 transformed values in Graphpad Prism. The correction for multiple comparisons was the two-stage step-up method of Benjamini, Krieger and Yekutieli with an FDR (Q) value of 10%. For volcano plots Log 10 FC vs Log 10 (q value) are plotted with q values>5% in red and >10% in blue. For normal vs CML comparisons, the process was the same with the exception that unpaired t-tests were used. For PC activity in normal vs CML, this is denoted by fraction m+3. For imatinib vs untreated we look at relative activity to PDH. IE., the m+3/m+2 ratio and conducted multiple t-tests with correction for multiple comparisons being the two-stage step-up method of Benjamini, Krieger and Yekutieli with an FDR (Q) value of 10%. To examine contribution to carbon pool we corrected contribution of each isotopologue by the number of carbons it contributes to a given metabolite, i.e., for glutamine contribution from m+5 is greater than m+3. Note that for cell line experiments standard deviation is shown.

Data set [2] is described as follows: Body weight of xenografted NRG-W41 mice during treatment. As to conditions: 4 weeks. The procedure:
For in vivo engraftment, 1 million CML CD34^+ cells, were transplanted via tail vein into sublethally irradiated (2.5Gy) female NRG-W41 (NOD.Cg-Rag1^tm1MomKit^W-41JIl2rg^tm1Wjl)) mice aged 8-10 weeks. Mice were housed under conditions of alternating 12 hours light and 12 hours darkness, at 20-24° C., 45-65% humidity, with feeding (LBS biotech: SDS Cat #SDS801730) and water ad libitum.
For treatment with imatinib plus MSDC-0160, eight weeks following transplant, drug treatment was started with both imatinib (LC Laboratories, Cat #1-5508) dosed at 100 mg/kg/day (50 mg per kg body weight BID) oral gavage and MSDC-0160 (30 mg/kg; oral gavage once daily). Treatment was given for 4 weeks.

Data set [3] has as its system CML CD34+ cells. The data set can be described thus: Patient-derived xenograft of CML CD34+ cells in NRG-W41 mice, bone marrow flow cytometry. The class given is in vivo, human. The protocol: Treatment was given for 4 weeks. For treatment with asciminib (ABL001) plus MSDC-0160, twelve weeks following transplant, drug treatment was started with both asciminib (Fisher Scientific Cat #1642956) dosed at 10 mg/kg/day (5 mg/kg BID); oral gavage and MSDC-0160 (Apex Biotechnology: Cat #B3702) dosed at 30 mg/kg; oral gavage once daily. Treatment was given for 4 weeks. At the respective endpoints, bone marrow cells were collected. This was done by placing inverted cut leg bones into 0.5 mL Eppendorf tubes with holes at bottom. These in turn were placed within 1.5 mL Eppendorf tubes containing PBS, centrifuged (12,000 RCF, 20 seconds). Cells were stained (300 μl/test) with anti-mouse (APC-Cy7 BD Biosciences: Cat #557659, RRID: AB_396774, 1 μl), anti-human CD45 (FITC; BD Biosciences: Cat #555482, RRID: AB_395874, 10 μl), anti-human CD34 (APC; BD Biosciences: Cat #555824, RRID: AB_398614, 2 μl) and anti-human CD38 (PerCP; BioLegend: Cat #303520, RRID: AB_893313, 2 μl) antibodies for flow cytometry analysis as described above.
In general terms: Xenograft models place foreign cells or tissue in a host animal.

Data set [4] has as its system CML CD34+ cells. The data set can be described thus: RNA-seq differential gene expression and GSEA of imatinib-treated CML CD34+ cells. The class given is cell-based, human. As to conditions: imatinib 2 μM, 48 hours. The protocol:
RNA was extracted from 200,000 CML CD34+ cells using an RNA easy mini kit (Qiagen) according to the manufacturer's instructions.
Libraries were prepared using the Illumina TruSeq Stranded mRNA LT Kit (Illumina) and run on the Illumina Next Seq 500 using the High Output 75 cycles kit (2×36 cycles, paired end reads, single index; Illumina). FastQ files were generated using Illumina's bcl2fastq (v. 2.20.0.422).
QC, alignment, and parsing of files into count matrices was performed in command line, with subsequent differential gene expression (DGE) analysis performed in R (1.2.1335). Adapter trimming was performed using Scythe (version 0.981), and Sickle (version 0.940), was used to trim bases with quality scores of less than 20. Prior to and after this pre-processing fastqc (version 0.11.2) was run to ascertain sequence quality, alongside the efficacy of the pre-processing steps. Trimmed reads were indexed and aligned using Hisat2 (version 2.1.0). Hisat2 indexes (GRCh38 genome_tran) were obtained from the John Hopkins Center for Computational Biology, 2020. Samtools (version 0.1.19044428cd) view was used to convert the resulting .sam to .bam files, whilst samtools sort was used to sort the .bam files. Assembly was achieved through the use of stringtie (John Hopkins Center for Computational Biology, 2020), with output .gtf files converted to count matrices using the python script prepDE.py (stringtie version 1.3.3b.Linux_x86_64). Reads were assembled using an annotated reference human genome (GRCh38.p13), obtained from GENCODE (GENECODE, 2020). DESeq2 (version 1.26.0) was used to generate results sets from the gene and transcript count matrices. G genes with read counts too low to allow for the calculation of p and adjusted p-values (padj: Benjamini-Hochberg) were removed from the data sets leaving gene and transcript counts of sizes 16,069 and 45,218 respectively.
GSEA (version 4.1) was conducted on pre-ranked lists (ranked by pi score calculated by multiplying LOG fold change by −LOG (corrected p-value)).

In data set [5] the test system is CML CD34+ cells. The data set can be described thus: Extracellular flux of spent medium by YSI bioanalyser. It is filed as cell-based, human.
Procedure: A YSI 2900 biochemistry analyser was used as per the manufacturer's instructions to quantify glucose, lactate, glutamine, and glutamate in the media. The concentration of each metabolite was normalised to cell number and the rate of uptake or secretion per hour was calculated relative to cell free medium. The exchange rate per 48 hours [secretion (+) or consumption (−)] for a specific metabolite (x) was obtained according to the following equation:
Data set [6] concerns phospho-CRKL. The data set can be described thus: Western blot of phospho-CRKL in CML patient samples. It is filed as cell-based, human. Conditions: imatinib, two patient samples.
Procedure: Cells were lysed in RIPA buffer containing mini-Complete protease inhibitor cocktail and phosphatase inhibitors (both Roche). Total protein concentration was quantified using a Pierce BCA kit (Thermo Fisher Scientific: 23227). Equal amounts of protein (5-7.5 μg) were heated at 95° C. for 5 min and separated (120V) in 4-12% gels (Novex) for SDS-PAGE. Proteins were transferred onto PDVF membranes (Thermo Fisher Scientific: 21882) then blocked in 2% BSA (in Tris-buffered saline, 0.01% Tween (TBS-T)) for one hour. Next, membranes were incubated overnight at 4° C. with the primary antibodies. The membranes were rinsed three times with TBS-T, then incubated with secondary HRP-linked antibodies (1:10,000) for 1 hour at room temperature. The SuperSignal West Femto Maxi detection system was used (Thermo Fisher Scientific: 34095) and imaging was carried out using a LI-COR Odyssey Fc gel-doc system.
The mark [7] stands for this setting: combination of imatinib and MSDC-0160, 4 weeks.

With `CCc1ccc(C(=O)COc2ccc(CC3SC(=O)NC3=O)cc2)nc1` (stereo not shown) [MSDC-0160], in data set [1], the “labelled fractions in alpha-ketoglutarate (AKG) and AKG-derived glutamate” value is reported as “reducing levels of all labelled fractions in these metabolites in a concentration-dependent manner”. Besides, in data set [1] (data not shown), the “glucose contribution to fraction of labelling” value is “concentration-dependent reduction”. For the same compound, the “tolerability (body weight throughout the study), single agent arms” value in data set [2] (imatinib 50 mg/kg BID or MSDC-0160 30 mg/kg/day, oral gavage) was “well tolerated”. Further, the “tolerability (body weight throughout the study), combination arm” value in data set [2] (imatinib 50 mg/kg BID plus MSDC-0160 30 mg/kg/day) was “well tolerated”. Besides, the “percentage of human CML LSCs, MSDC-0160 on its own” value in data set [3] (MSDC-0160 30 mg/kg once daily, 4 weeks, 12 weeks engraftment) is “reduction in the percentage of human CML LSCs”. Further, the “percentage of human CML LSCs, combination with ABL-001” value in data set [3] (MSDC-0160 30 mg/kg plus ABL-001 10 mg/kg/day, 4 weeks) is “reduction in the percentage of human CML LSCs”. The “total numbers of CML CD45+CD34+CD38- cells (LSC)” value in data set [3] (combination of ABL-001 and MSDC-0160 30 mg/kg, 4 weeks) is “did not reduce the total numbers”. For the same compound, the “reduction in percentage of human CD45+ leukocytes and total number of bone marrow CD45+ cells” value in data set [3] (combination of imatinib 50 mg/kg BID and MSDC-0160 30 mg/kg/day, 4 weeks) is listed as “did not reach statistical significance”. In data set [3] (setting [7]), the “percentage and absolute number of human CML LSCs (CD34+CD38-)” value is “marked reduction in both the percentage and absolute number”; the “relative and total reduction of CD34+ cells versus vehicle or imatinib arms” value is “did not reach statistical significance”.

For `Cc1ccc(NC(=O)c2ccc(CN3CCN(C)CC3)cc2)cc1Nc1nccc(-c2cccnc2)n1` [imatinib], the “most downregulated pathways in GSEA” value in data set [4] (Hallmark gene sets) was “oxidative phosphorylation, glycolysis, and fatty acid oxidation”. Also, in data set [4] (paired transcriptomic data), the PC transcript level entry is “no change” and the PDH transcript level result was “downregulation”. Besides, the glucose consumption entry in data set [5] (imatinib-treated vs control primary CML CD34+ cells) was “consumed less glucose than control cells, when corrected for a decrease in proliferation this difference disappeared”. For the same compound, the glutamine consumption entry in data set [5] (imatinib-treated vs untreated primary CML CD34+ cells) is “decreased”. The phospho-CRKL protein level entry in data set [6] is given as “decreased”.

Source of the values: US20260014129A1, “MITOCHONDRIAL PYRUVATE METABOLISM INHIBITORS FOR TREATING CHRONIC MYELOID LEUKEMIA” (The University Court of the University of Glasgow, priority 2022, published 2026).
